Test results: US20150203924A1, “[…] FOR HERBICIDE RESISTANCE IN PLANTS” (PURDUE RESEARCH FOUNDATION, priority 2013, published 2015)

Legend:
[1] = test system: Ambrosia trifida L. (Giant ragweed); experiment: Tissue specific (differential exposure) glyphosate treatment, translocation; conditions: uncovered portions sprayed with 0.7 kg ae/ha
[2] = test system: Ambrosia trifida L. (Giant ragweed); experiment: 31P NMR imaging of glyphosate infiltrated leaves; format: in vivo
[3] = test system: Ambrosia trifida L. (Giant ragweed); experiment: H2O2 accumulation in glyphosate treated leaves by DAB staining; format: in vivo
Description: In an embodiment, the H2O2 presence is visually detected after 3,3′-diaminobenzidine (DAB) staining using procedures described by Thordal-Christensen et al., ([…]). […] At each harvested time, leaf discs are floated in a solution of DAB-Hydrochloric acid (HCl) (1 mg/ml) (Sigma, St. Louis, Mo.) in a beaker at room temperature and allowed to absorb the solution through the cut ends. After 3 hours of incubation, leaf discs are decolorized by boiling in 90% ethanol for ten minutes to remove chlorophyll, before visual examination. Brown precipitates form at sites of H2O2 accumulation and data collected will be by visual detection of H2O2 accumulation as noted by intensity of brown precipitates on treated leave discs. The hypersensitive reaction (HR) has been used as a visual marker of biotic interactions and induction of pathogen response (PR) genes (S) but this has been also shown in plant responses to abiotic stresses such as excess excitation energy (EEE) (Muhlenbock et al., 2008).

[4] = test system: Ambrosia trifida L. (Giant ragweed); experiment: Chlorophyll fluorescence measurements / rapid necrosis of mature leaves after glyphosate treatment; format: in vivo; conditions: 1x field rate glyphosate
Description: To quantify early physiological reactions related to this resistance mechanism, a method was developed using chlorophyll fluorescence measurements to determine photosynthetic activity. […] Treatments at each time point consisted of glyphosate-resistant and glyphosate-sensitive A. trifida untreated and treated leaves.
In an embodiment, to measure fluorescence the maximum quantum efficiency of photosystem II (Fv/Fm) is determined using an Imaging-PAM fluorometer IMAG-MAX/GS with a mounted LED-Array Illumination Unit IMAG-MAX/L and CCD-Camera (Heinz Walz GmbH, 91090 Effeltrich, Germany) along with ImagingWin software. Briefly, dark acclimated plants are exposed to a short saturating light pulse to maximally reduce the QA pool and where fluorescence is increased to maximum values (Fm) and this is followed by a weak non-actinic modulated measuring light to determine the minimal level of fluorescence (F0) (Oxborough, 2004).

EPSPS = EPSPS sensitivity to glyphosate challenge; format: biochemical, Ambrosia trifida
[5] = test system: Ambrosia trifida L. (Giant ragweed); experiment: Foliar glyphosate treatment of whole plants: fresh weight and visual injury; format: in vivo
Text: Significance (<0.05) between populations (within rates) is indicated by letters (a, b). […] Significance (<0.05) between rates (within populations) is indicated by letters (a, b, c).
Foliar application of herbicide solution was applied using a compressed-air bench top track sprayer at a pressure of 249 kPa and a volume of 187 L of spray solution ha-1. […] All plants were at the third node growth stage at the time of treatment.

[6] = test system: Ambrosia trifida L. (Giant ragweed); experiment: 14C-glyphosate uptake and translocation; format: in vivo; conditions: two mature leaves treated with 14C-glyphosate
Text: In the study, the treated leaf included two mature leaves treated with ^14C-glyphosate. Mobilized distribution includes untreated mature leaves, meristems and roots.

[7] = three weeks after treatment, 1x glyphosate field rate

O=C(O)CNCP(=O)(O)O [glyphosate, N-(phosphonomethyl)glycine]
translocation of glyphosate away from treated tissues, glyphosate-resistant plants [1]: did not translocate glyphosate | translocation of glyphosate away from treated tissues, glyphosate-sensitive plants [1]: glyphosate-sensitive plants did | time to rapid cell death, glyphosate-resistant plants [2]: ≤ 16 h | cell death, glyphosate-sensitive plants ([2]; within 16 hours): limited cell death | H2O2 production, glyphosate sensitive leaves [3]: no H2O2 production | time to significant H2O2 accumulation, mature leaves of glyphosate-resistant plants [3]: ≤ 2 h | time to rapid necrosis in mature leaves, glyphosate-resistant plants [4]: ≤ 12 h | EPSPS sensitivity to glyphosate challenge, glyphosate-resistant vs glyphosate-sensitive plants (EPSPS): no difference | visual plant injury of resistant plants compared to sensitive plants ([5]; 1x, 2x, 4x treatment levels, after twenty-one days): decreased visual injury compared to the sensitive plants | visual injury rating (% dead), resistant plants compared to sensitive plants ([5]; 3 weeks after treatment, n=63): much lower rating of % dead compared to the sensitive plants | plant response, glyphosate-resistant plant [5, 7]: recovered from the glyphosate treatment | plant response, glyphosate-sensitive plant [5, 7]: extremely decline | fresh weight of resistant plants compared to sensitive plants ([5]; whole plant tissue 21 days after treatment, 1x=0.7, 2x=1.4, 4x=2.8 kg ae ha-1): increased fresh weight at all treatment levels compared to the sensitive plants | absorbed glyphosate translocated, glyphosate resistant plants [6]: 28% | absorbed glyphosate translocated, glyphosate-sensitive plants [6]: 54%
